Results taken from PMC6744417, “ALKBH overexpression in head and neck cancer: potential target for novel anticancer therapy” (Scientific Reports, 2019).
Read-outs that look alike come from different tables or passages of the source.

How the values were obtained:
[1] = biological target: T1, EcAlkB (Escherichia coli, UniProt P05050); assay: In vitro inhibition assay of demethylation activity (HPLC), AlkB; assay type: biochemical
T1 construct: made in house
Experimental: (§1) For EcAlkB, ALKBH3, and FTO, the inhibitory effect was further quantified by measuring inhibition of demethylation activity in vitro (Fig. 6D). […]. The reactions were carried out for 30 min at 37 °C in 20 µl of 50 mM Tris-HCl pH 7.5 with 1 mM DTT, 100 µM Fe(NH4)2(SO4)2, 50 µM 2OG, and 100 nM of AlkB or ALKBH3, 25 µM of substrate, and different concentrations of indicated inhibitors. […]. Modified and unmodified (repaired) products were separated and analyzed on Knauer HPLC system with C18 column (Waters NovaPak). The mobile phase binding buffer (20 mM TEAA) and elution buffer (acetonitrile) were mixed and flown at a rate of 1 ml/min. The detection wavelength was 260 nm.

[2] = biological target: T2, ALKBH3 (Homo sapiens, UniProt Q96Q83); assay: In vitro inhibition assay of demethylation activity (HPLC), ALKBH3; assay type: biochemical
T2 construct: made in house
T2 sequence (Q96Q83 1-286): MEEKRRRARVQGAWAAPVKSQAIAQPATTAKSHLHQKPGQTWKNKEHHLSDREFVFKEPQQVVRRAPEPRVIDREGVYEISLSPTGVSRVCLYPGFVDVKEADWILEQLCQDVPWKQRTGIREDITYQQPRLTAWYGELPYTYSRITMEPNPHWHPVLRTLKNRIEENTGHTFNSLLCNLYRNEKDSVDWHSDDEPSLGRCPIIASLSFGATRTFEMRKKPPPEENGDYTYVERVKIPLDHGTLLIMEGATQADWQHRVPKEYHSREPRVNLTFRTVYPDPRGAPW
Experimental: as §1

[3] = biological target: T3, FTO (Homo sapiens, UniProt Q9C0B1); assay: FTO N6meA demethylation Chemiluminescent Assay Kit; assay type: biochemical; details: FTO 330 nM; N6meA on RNA; read-out: IC50 (Enzyme: FTO 330nM; Substrate: N6meA)
T3 construct: His; made in house; host or cells: E. coli BL-21
Experimental: To measure the activity of obtained by us FTO protein, Chemiluminescent Assay Kit was used (BPS Bioscience). As a substrate, we used N^6meA modification on RNA. The reactions were carried out according to the manufacturer’s protocol. Chemiluminescence was measured using the plate reader Synergy HT (Bio Tek) with 1 sec of integration time and 100 ms of delay after plate movement.

[4] = biological target: T3, FTO; assay: Thermal shift assay for ligand binding, FTO holo form; details: FTO holo form (2OG, Mn2+), 5 µM compound; holo form alone 52.8 ± 0.6 °C
Experimental: (§2) We tested the affinity of our newly synthesized anthraquinones, 7-chloroemodin and 5,7-dichloroemodin, (Fig. S13) for ALKBH3 and FTO and assessed their effect on the enzymatic activity of targeted proteins using the thermal shift assay (TSA). The thermodynamic parameters for thermal denaturation of both proteins were measured for their holo forms, in the presence of 2OG and Mn^2+, an analogue of Fe^2+.
(§3) The assay was developed previously to monitor ligand binding to AlkB[36]. Fluorescence experiments were performed using a Varian Cary Eclipse spectrofluorimeter. Emission was monitored at 345 nm (excitation at 280 nm) over a temperature range of 40-95 °C with heating rate of 1 °C/min. The protein samples were dissolved in HEPES buffer at pH 7.5 with 2 mM dithiotreitol (DTT) and 150 mM NaCl to a final concentration of 1.2 µM. The process of thermal unfolding was performed at a concentration of 5 µM of the tested compound, either in the presence or absence of cofactors (50 µM 2OG and 100 µM Mn(II)). The thermal unfolding of the holo form of the protein was always monitored and further used as the reference. All the calculations were performed using Origin 9.0 software, assuming the simplest model of two-state (Folded-Unfolded) transition.

[5] = biological target: T2, ALKBH3; assay: Thermal shift assay for ligand binding, ALKBH3 holo form; details: ALKBH3 holo form (2OG, Mn2+), 5 µM compound; result in words
Experimental: as §2, §3

[6] = test system: EUFA30 cells; assay: Alamar Blue viability assay, EUFA30; assay type: cell-based, human; details: normal fibroblast cells, 48 h of treatment
Experimental: (§4) Exponentially growing cells at the density of 3 × 10^3 cells/well were seeded onto a 96-well plate, cultured for 18 h followed by the respective treatment of antraquinones or its derivatives in various concentrations or 34 nM RNA interference of ALKBH proteins, and then cultured for a an additional 48 h. Alamar Blue (Invitrogen) viability assay was performed according to manufacturer’s protocol: after 4 h incubation, emission at 590 nm was measured with excitation at 560 nm using a scanning multiwall multimode spectrophotometer (DTX 880, Beckman Coulter). The experiment was carried out at least three times, with three replicates for each inhibitor concentration. After background subtraction, inhibition rates, IC50, values were calculated as the concentration of the component that inhibits cell growth by 50%. All the calculations were done using Origin 9.0 software.

[7] = test system: HeLa cells; assay: Alamar Blue viability assay, HeLa; assay type: cell-based, human; details: 48 h of treatment
Experimental: (§5) Alamar Blue (Invitrogen) viability assay was performed according to manufacturer’s protocol: after 4 h incubation, emission at 590 nm was measured with excitation at 560 nm using a scanning multiwall multimode spectrophotometer (DTX 880, Beckman Coulter). The experiment was carried out at least three times, with three replicates for each inhibitor concentration. […] All the calculations were done using Origin 9.0 software.

[8] = test system: HEK293 cells; assay: Alamar Blue viability assay, HEK293; assay type: cell-based, human; details: 48 h of treatment
Experimental: as §5

[9] = test system: U87 cells; assay: Alamar Blue viability assay, U87; assay type: cell-based, human; details: 48 h of treatment
Experimental: as §4

[10] = test system: BICR18 cells; assay: Alamar Blue viability assay, BICR18; assay type: cell-based, human; details: 48 h of treatment
Experimental: as §5

[11] = test system: HeLa cells; assay: Flow cytometry Annexin V-FITC / propidium iodide, HeLa; assay type: cell-based, human; details: 48 h, untreated control 10.8%
Experimental: (§6) Silencing was performed using the lipofectamine RNAiMAX reagent (Invitrogen) and ready-to-use siRNA mixture (Santa Cruz Biotechnology) composed of at least two different siRNAs targeting the same gene, to knock down ALKBH1, 2, 3, 4, 5, 8, and FTO (Supplementary Table 2). 1 × 10^6 cells were seeded onto a 100 mm diameter dishes. After 24 h of incubation, siRNAs mixtures (with lipofectamine, in OPTI-MEM medium) were added. After 48 h, cells were collected for WB or flow cytometry analysis. For WB analysis, adherent cells were rinsed three times with PBS, scraped, and centrifuged (800 x g, 10 min, 4 °C). Next, cells were re-suspended in 100 μL RIPA buffer with a 1 x mammalian protease inhibitor cocktail (Sigma-Aldrich). The resulting lysates were spun down at 30 130 x g to remove insoluble particles, assayed for protein content using the Bradford assay, and loaded onto the SDS-PAGE at the protein amount of 20 μg per line. The strength of WB signals corresponding to the particular ALKBHs were calculated by densitometry. The expression changes by 30% were considered as significant.
(§7) The Annexin V-FITC apoptosis detection kit (ApoAlert Annexin V-FITC Apoptosis Kit, TaKaRa) was used to detect apoptosis by flow cytometry. Cells were seeded at 6-well plates at concentration of 5 × 10^5 cells/well, cultured for 18 h, and then the tested agent was applied for the indicated periods. Afterward, cells were washed with PBS, resuspended in binding buffer, and anti-Annexin V FITC-conjugated antibody and propidium iodide were added to 100 µl aliquots. The mixtures were incubated for 15 min at room temperature, supplemented with binding buffer to 500 µl, and processed using BD FACSCalibur (BD Biosciences). Data were analyzed in Flowing Software version 2.5.1 (Flowing Software, http://www.uskonaskel.fi/flowingsoftware).

[12] = test system: HeLa cells; parameters: method as in ref 32 (Varela-Ramirez and co-workers 2011); details: ref 32 (Varela-Ramirez and co-workers 2011); cited from earlier work
[13] = test system: EUFA30 cells; assay: Flow cytometry Annexin V-FITC / propidium iodide, EUFA30; assay type: cell-based, human; details: EUFA30, 500 μM, 48 h
Experimental: as §6, §7

[14] = test system: ALKBH3; parameters: method as in ref 14 (Li and co-workers 2016); details: ref 14 (Li and co-workers 2016); read-out: IC50 against ALKBH3; cited from earlier work
[15] = test system: U87 cells; parameters: method as in ref 14 (Li and co-workers 2016); details: ref 14 (Li and co-workers 2016); cited from earlier work
[16] = EcAlkB 100 nM, 3meC on TT(3meC)TT pentamer, 30 min 37 °C, read-out: IC50 (Enzyme: EcAlkB 100nM; Substrate: 3meC)
[17] = ALKBH3 100 nM, 3meC on TT(3meC)TT pentamer, 30 min 37 °C, read-out: IC50 (Enzyme: ALKBH3 100nM; Substrate: 3meC)

T1 sequence (P05050 whole entry): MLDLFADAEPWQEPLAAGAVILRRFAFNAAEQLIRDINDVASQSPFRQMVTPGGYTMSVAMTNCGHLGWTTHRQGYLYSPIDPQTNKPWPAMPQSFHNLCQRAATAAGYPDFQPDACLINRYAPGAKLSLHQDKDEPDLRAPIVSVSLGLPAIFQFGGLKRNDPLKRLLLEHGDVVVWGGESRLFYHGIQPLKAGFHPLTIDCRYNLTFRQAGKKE
T3 sequence (Q9C0B1 whole entry): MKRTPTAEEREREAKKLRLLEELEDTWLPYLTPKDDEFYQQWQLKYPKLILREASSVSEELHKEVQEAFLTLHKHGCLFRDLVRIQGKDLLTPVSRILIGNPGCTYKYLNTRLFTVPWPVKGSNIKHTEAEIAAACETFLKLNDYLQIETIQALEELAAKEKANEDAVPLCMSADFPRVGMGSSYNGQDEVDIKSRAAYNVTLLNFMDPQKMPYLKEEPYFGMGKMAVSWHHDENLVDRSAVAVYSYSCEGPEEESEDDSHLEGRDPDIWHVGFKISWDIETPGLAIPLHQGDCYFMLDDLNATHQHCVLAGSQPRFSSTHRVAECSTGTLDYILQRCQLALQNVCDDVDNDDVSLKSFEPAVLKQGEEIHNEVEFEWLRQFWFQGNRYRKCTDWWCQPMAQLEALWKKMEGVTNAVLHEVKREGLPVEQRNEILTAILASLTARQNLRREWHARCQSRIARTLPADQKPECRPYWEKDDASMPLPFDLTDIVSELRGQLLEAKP

Row | Compound | IC50 [1, 16] | IC50 [2, 17] | IC50 [3] | binding to ALKBH3 judged by increase of melting temperature [5] | IC50 [1] | IC50 ([6]; Homo sapiens) | IC50 ([7]; Homo sapiens, HeLa) | IC50 ([8]; Homo sapiens, HEK293) | IC50 ([9]; Homo sapiens, U-87 MG) | IC50 ([10]; Homo sapiens) | further results
1 | Cc1c(Cl)c(O)c2c(c1Cl)C(=O)c1cc(O)cc(O)c1C2=O [5,7-Dichloroemodin] | 16.4 µM | 176000 ± 6000 nM | 42.1 ± 6.5 µM | slightly more weakly | – | – | – | – | – | – | melting temperature of FTO-ligand complex [4]: 67.4 ± 0.1 °C; IC50 [6]: 102 µM; IC50 [7]: 10.6 µM; IC50 [8]: 87.3 µM; IC50 [9]: 158 µM; IC50 [10]: 39.8 µM; number of necrotic HeLa cells ([11]; 25 μM): 69.2%; number of necrotic HeLa cells ([11]; 100 μM): 83.1%
2 | Cc1cc2c(c(O)c1Cl)C(=O)c1c(O)cc(O)cc1C2=O [7-Chloroemodin] | 19.8 µM | 116000 ± 7000 nM | 28.1 µM | – | – | – | – | – | – | – | melting temperature of FTO-ligand complex [4]: 71.5 ± 0.2 °C; IC50 [6]: 163 µM; IC50 [7]: 33.8 µM; IC50 [8]: 180 µM; IC50 [9]: 120 µM; IC50 [10]: 99.5 µM; number of necrotic HeLa cells ([11]; 25 μM): 18.8%; number of necrotic HeLa cells ([11]; 100 μM): 37.6%
3 | O=C1c2cccc(O)c2C(=O)c2c(O)cc(CO)cc21 [Aloe-Emodin] | – | 8800 nM | 52 ± 12.6 µM | slightly more weakly | 230 ± 100 µM | 380 µM | 26 µM | > 1000 µM | > 1000 µM | 57.5 µM | cytotoxicity against HEK293 [8]: not cytotoxic; cytotoxicity against U87 [9]: not cytotoxic
4 | Cc1c(C(=O)O)c(O)cc2c1C(=O)c1c(O)c([C@@H]3O[C@H](CO)[C@@H](O)[C@H](O)[C@H]3O)c(O)c(O)c1C2=O [Carminic Acid, Carminic acid] | 170 ± 70 µM | 111000 ± 7000 nM | 25.3 ± 2.2 µM | – | – | 311 µM | 387 µM | 219 µM | 258 µM | 305 µM | –
5 | [CH3][Sn]([Cl])([c]1ccccc1)[c]1ccccc1 [DPMT, diphenylmethyltin chloride] | – | – | – | – | – | – | – | – | – | – | necrosis on HeLa cells [12]: more than 40 % of cells
6 | Cc1cc(O)c2c(c1)C(=O)c1cc(O)cc(O)c1C2=O [Emodin] | – | 540000 ± 160000 nM | 49.4 ± 19 µM | slightly more weakly | 520 ± 100 µM | 138 µM | 110 µM | – | 42.7 µM | 81.1 µM | –
7 | O=C(O)c1cc(O)c2c(c1)C(=O)c1cccc(O)c1C2=O [Rhein] | – | – | – | strongest ligand | 20.5 µM | 423 µM | 126 µM | 157 µM | > 1000 µM | 89.4 µM | IC50 ([2]; as printed in text in nM, 3meC substrate, read-out: IC50 against ALKBH3): 40 nM; increase of early apoptosis stage compared to untreated control [13]: approximately 2 fold; increase of late apoptosis compared to untreated control [13]: 15 fold; increase of necrosis compared to untreated control [13]: 11 fold; IC50 [14]: 5.3 µM; cytotoxic effect against U87 cells [15]: did not found any cytotoxic effect
